US8846929B2, “Substituted-quinoxaline-type piperidine compounds and the uses thereof” (priority 2007, dated 2014)

The molecules below were run on FCA-induced inflammation of the rat hind paw (assay: not given). Settings: in vivo.

Structure (SMILES)	maximum % reversal of thermal hyperalgesia
O=C(O)c1nc2ccccc2n([C@H]2C[C@H]3CCC[C@@H](C2)N3C2CCCCCCC2)c1=O [compound 241, 4-((endo)-9-cyclooctyl-9-azabicyclo[3.3.1]nonan-3-yl)-3-oxo-3,4-dihydroquinoxaline-2-carboxylic acid]	about 80%

What follows are molecules tested against delta opioid receptor (Homo sapiens (Human), UniProt P41143) (assay: In vitro delta-opioid receptor binding assay ([3H]-Naltrindole displacement)). Settings: not given.
Sequence of delta opioid receptor (P41143 whole entry): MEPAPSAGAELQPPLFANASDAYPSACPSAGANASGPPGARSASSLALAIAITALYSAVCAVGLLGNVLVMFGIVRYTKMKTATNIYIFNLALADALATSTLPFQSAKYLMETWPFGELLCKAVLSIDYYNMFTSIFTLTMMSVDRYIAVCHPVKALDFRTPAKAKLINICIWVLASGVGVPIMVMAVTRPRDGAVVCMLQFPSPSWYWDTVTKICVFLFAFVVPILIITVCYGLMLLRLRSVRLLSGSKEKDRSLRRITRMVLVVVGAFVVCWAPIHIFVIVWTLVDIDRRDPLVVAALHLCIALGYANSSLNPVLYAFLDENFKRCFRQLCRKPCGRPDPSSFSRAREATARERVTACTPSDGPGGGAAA

Structure (SMILES)	Ki
O=C(O)c1nc2ccccc2n(C2CC3CCCC(C2)N3C23CC4CC(CC2C4)C3)c1=O (centres unmarked) [compound 263, 4-(9-(hexahydro-2,5-methano-pentalen-3a-yl)-9-aza-bicyclo[3.3.1]non-3-yl)-3-oxo-3,4-dihydro-quinoxaline-2-carboxylic acid]	526000 nM

What follows are molecules tested against human opioid receptor-like (ORL-1) (Homo sapiens (Human), UniProt P41146) (assay: In vitro ORL-1 receptor [35S]GTPγS functional assay). Settings: not given.
Format: biochemical

Sequence of human opioid receptor-like (ORL-1) (P41146 whole entry): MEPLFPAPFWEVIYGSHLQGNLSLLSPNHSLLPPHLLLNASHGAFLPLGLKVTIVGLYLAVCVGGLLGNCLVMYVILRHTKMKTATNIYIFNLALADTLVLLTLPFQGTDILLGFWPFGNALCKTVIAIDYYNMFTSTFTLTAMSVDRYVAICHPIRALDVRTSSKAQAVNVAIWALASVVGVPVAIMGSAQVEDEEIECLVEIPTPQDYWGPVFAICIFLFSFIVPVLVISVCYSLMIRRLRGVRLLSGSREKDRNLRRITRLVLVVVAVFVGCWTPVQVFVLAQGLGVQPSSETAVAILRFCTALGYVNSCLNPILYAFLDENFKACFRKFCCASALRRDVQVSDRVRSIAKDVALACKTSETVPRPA

Structure (SMILES)	EC50
O=C(O)c1nc2ccccc2n(C2CC3CCCC(C2)N3C23CC4CC(CC2C4)C3)c1=O (centres unmarked) [compound 263, 4-(9-(hexahydro-2,5-methano-pentalen-3a-yl)-9-aza-bicyclo[3.3.1]non-3-yl)-3-oxo-3,4-dihydro-quinoxaline-2-carboxylic acid]	298 ± 26 nM
O=C(O)c1ccc(CNC(=O)c2nc3ccccc3n([C@H]3C[C@H]4CC[C@@H](C3)N4C3CCCCCCC3)c2=O)nc1 [compound 318, 6-((4-((endo)-8-cyclooctyl-8-azabicyclo[3.2.1]octan-3-yl)-3-oxo-3 ,4-dihydroquinoxaline-2-carboxamido)methyl)nicotinic acid]	236 ± 13 nM
O=C(O)c1nc2ccccc2n([C@H]2C[C@H]3CC[C@@H](C2)N3C23CC4CC(CC2C4)C3)c1=O [compound 320]	104 ± 7.8 nM
O=C(O)CN(CCNC(=O)c1nc2ccccc2n([C@H]2C[C@H]3CC[C@@H](C2)N3C23CC4CC(CC(C4)C2)C3)c1=O)CC(=O)O [compound 325]	109 ± 14 nM
CC1(N2[C@@H]3CCC[C@H]2C[C@@H](n2c(=O)c(C(=O)O)nc4ccccc42)C3)CCCCCCC1 [compound 335]	174 ± 10 nM
O=C(O)CN1CCN(c2nc3ccccc3n([C@H]3C[C@H]4CC[C@@H](C3)N4C3CCCCCCC3)c2=O)CC1 [compound 337, 2-(4-(4-((endo)-8-cyclooctyl-8-azabicyclo[3.2.1]octan-3-yl)-3-oxo-3,4-dihydroquinoxalin-2-yl)piperazin-1-yl)acetic acid]	438 ± 15 nM
O=C(O)c1nc2ccccc2n([C@H]2C[C@H]3CCCC[C@@H](C2)N3C2/C=C\CCCCC2)c1=O (some centres unmarked) [compound 359]	134 ± 2.7 nM
O=C(O)c1nc2ccccc2n([C@H]2C[C@H]3CCC[C@@H](C2)N3C2C3CC4CC(C3)CC2C4)c1=O (some centres unmarked) [compound 363]	4090 ± 1160 nM
O=C(O)c1nc2ccccc2n([C@H]2C[C@H]3CCC[C@@H](C2)N3CCC2CCCCC2)c1=O [compound 372]	214 ± 57 nM
